PMC4613240, “A Series of New Ligustrazine-Triterpenes Derivatives as Anti-Tumor Agents: Design, Synthesis, and Biological Evaluation” (International Journal of Molecular Sciences, 2015)

Assays:
[1] = test system: Hela (human cervical cancer); test: MTT cytotoxicity assay, Hela; assay type: cell-based; conditions: 72 h, maximal tested concentration 20.0 μM
Method: (§1) The cytotoxicity of ligustrazine-triterpenes derivatives was evaluated on five tumor cell lines (Bel-7402, HepG2, HT-29, Hela, and MCF-7) using the standard MTT assay. In the study, the antineoplastic drug cisplatin (DDP) was selected as the positive control. The MDCK cell line was used to test the toxicity of the ligustrazine-triterpenes derivatives and DDP.
(§2) The cell lines Bel-7402 (human hepatocellular carcinoma), HepG2 (human hepatocellular carcinoma), HT-29 (human colon carcinoma), Hela (human cervical cancer), MCF-7 (human breast cancer) were included in this study. All these cell lines were provided by the Chinese Academy of Medical Sciences & Peking Union Medical College. Cultures were maintained as monolayers in RPMI 1640 supplemented with 10% (v/v) heat inactivated fetal bovine serum and 1% (v/v) enicillin/streptomycin (Thermo Technologies, New York, NY, USA) at 37 °C in a humidified atmosphere with 5% CO2. The ligustrazine derivatives under study were dissolved in DMSO (Sigma, St. Louis, MO, USA) and added at required concentrations to the cell culture. Cells incubated without the preparations served as the control.
(§3) The cytotoxicity of the compounds was evaluated on five cancer cell lines (Bel-7402, HepG2, HT-29, Hela, MCF-7) by the standard MTT assay. In short, exponentially growing cells were seeded into 96-well plates at a density 10^4 cells/mL. The plates were incubated at 37 °C in a humidified 5% CO2 atmosphere. Cells were allowed to adhere to the surface for 24 h and then treated with serial dilutions of the compounds for 72 h. Later, aliquots of [3-(4,5-dimethylthiazol-2-yl)-2,5-diphenyltetrazolium bromide] (MTT) solution (20 μL, 5 mg/mL) were added to each well and the incubation was continued for an additional 4 h. Then the supernatant medium was thrown away. The dark blue formazan crystals formed within the healthy cells were solubilized with DMSO (150 μL) and the absorbance was measured in a plate reader (BIORAD 550 spectrophotometer, Bio-rad Life Science Development Ltd., Beijing, China) at 490 nm. Wells containing no drugs were used as control group. The IC50 values were defined as the concentration of compounds that produced a 50% reduction of surviving cells and calculated using Logit-method. Tumor cell growth inhibitory rate was calculated in the following Equation (1): % inhibition = (1 − Sample group OD/Control group OD) × 100% (1)

[2] = test system: HT-29 (human colon carcinoma); test: MTT cytotoxicity assay, HT-29; assay type: cell-based; conditions: maximal tested concentration 20.0 μM
Method: as §1, §2, §3

[3] = test system: MCF-7 (human breast cancer); test: MTT cytotoxicity assay, MCF-7; assay type: cell-based; conditions: maximal tested concentration 20.0 μM
Method: as §1, §2, §3

[4] = test system: Bel-7402 (human hepatocellular carcinoma); test: MTT cytotoxicity assay, Bel-7402; assay type: cell-based; conditions: maximal tested concentration 20.0 μM
Method: as §1, §2, §3

[5] = test system: HepG2 (human hepatocellular carcinoma); test: MTT cytotoxicity assay, HepG2; assay type: cell-based; conditions: 72 h, maximal tested concentration 20.0 μM
Method: as §1, §2, §3

[6] = test system: Madin-Darby canine kidney cell line (MDCK); test: MTT cytotoxicity (nephrotoxicity/selectivity) assay, MDCK; assay type: cell-based; conditions: maximal tested concentration 20.0 μM, toxicity to MDCK kidney cells

Row | SMILES | melting point [°C] | IC50 ([1]; Homo sapiens, HeLa) [µM] | IC50 ([2]; Homo sapiens, HT-29, 72 h) [µM] | IC50 ([3]; Homo sapiens, MCF7, 72 h) [µM] | IC50 ([4]; Homo sapiens, Bel-7402, 72 h) [µM] | IC50 ([5]; Homo sapiens, HepG2, 72 h) [µM] | IC50 ([6]; Canis lupus familiaris) [µM] | IC50 [1] [µM] | IC50 ([2]; 72 h) [µM] | IC50 ([3]; 72 h) [µM] | IC50 ([4]; 72 h) [µM] | IC50 [5] [µM] | IC50 [6] [µM]
1 | Cc1nc(C)c(COC(=O)[C@]23CC[C@@H](C)[C@H](C)C2C2=CCC4[C@@]5(C)CC[C@H](O)C(C)(C)C5CC[C@@]4(C)[C@]2(C)CC3)nc1C (stereo partly drawn) [Compound 2a, 3β-Hydroxyurs-12-en-28-oic acid-3,5,6-trimethylpyrazin-2-methyl ester] | 125.9 to 126.7 | 20 | 17.6 | > 20 | 8.01 | > 20 | > 20 |  |  |  |  |  | 
2 | Cc1nc(C)c(C(=O)OC2CCC3(C)C(CCC4(C)C3CC=C3C5CC(C)(C)CCC5(C(=O)OCc5ccccc5)CCC34C)C2(C)C)nc1C (stereo not drawn) [Compound 1c, 3β-Hydroxyolea-(3,5,6-trimethylpyrazin-2-carbonyl)-12-en-28-oic acid-benzyl ester] | 194.2 to 194.9 | > 20 | > 20 | > 20 | > 20 | > 20 |  |  |  |  |  |  | 
3 | N.N.[Cl][Pt][Cl] [DDP, cisplatin, reference compound] |  |  |  |  |  |  |  | 6.22 | 5.28 | 5.17 | 5.91 | 4.57 | 14.6
4 | Cc1nc(C)c(COC(=O)[C@]23CC[C@@H](C)[C@H](C)C2C2=CCC4[C@@]5(C)CC[C@H](OC(=O)c6nc(C)c(C)nc6C)C(C)(C)C5CC[C@@]4(C)[C@]2(C)CC3)nc1C (stereo partly drawn) [Compound 2b, 3β-Hydroxyurs-(3,5,6-trimethylpyrazin-2-carbonyl)-12-en-28-oic acid-3,5,6-trimethylpyrazin-2-methyl ester] | 168.2 to 168.9 | > 20 | > 20 | > 20 | > 20 | > 20 |  |  |  |  |  |  | 
5 | Cc1nc(C)c(C(=O)OC2CCC3(C)C(CCC4(C)C3CC=C3C5CC(C)(C)CCC5(C(=O)O)CCC34C)C2(C)C)nc1C (stereo not drawn) [Compound 1d, 3β-Hydroxyolea-(3,5,6-trimethylpyrazin-2-carbonyl)-12-en-28-oic acid] | 289.7 to 290.5 | 4.37 | 8.43 | 5.69 | 9.28 | 7.94 | 16.4 |  |  |  |  |  | 
6 | Cc1nc(C)c(COC(=O)[C@@]2(C)CC[C@]3(C)CC[C@]4(C)C(=CC(=O)C5[C@@]6(C)CC[C@H](O)C(C)(C)C6CC[C@]54C)C3C2)nc1C (some centres unmarked) [Compound 3a, 3-Hydroxy-11-oxoolean-12-en-30-oic acid-3,5,6-trimethylpyrazin-2-methyl ester] |  | 11.2 | 19.9 | > 20 | > 20 | > 20 | > 20 |  |  |  |  |  | 
7 | CC1(C)[C@@H](O)CC[C@]2(C)[C@H]3C(=O)C=C4[C@@H]5C[C@@](C)(C(=O)O)CC[C@]5(C)CC[C@@]4(C)[C@]3(C)CC[C@@H]12 [GA, glycyrrhetic acid, reference compound] |  |  |  |  |  |  |  | > 20 | > 20 | > 20 | > 20 | > 20 | 
8 | Cc1nc(C)c(COC(=O)[C@]23CCC(C)(C)CC2C2=CCC4[C@@]5(C)CC[C@H](O)C(C)(C)C5CC[C@@]4(C)[C@]2(C)CC3)nc1C (stereo partly drawn) [Compound 1a, 3β-Hydroxyolea-12-en-28-oic acid-3,5,6-trimethylpyrazin-2-methyl ester] |  | 14.1 | 13.2 | 15.2 | 10.2 | 14.8 | > 20 |  |  |  |  |  | 
9 | Cc1nc(C)c(C(=O)OC2CCC3(C)C(CCC4(C)C3CC=C3C5C(C)C(C)CCC5(C(=O)O)CCC34C)C2(C)C)nc1C (stereo not drawn) [Compound 2d, 3β-Hydroxyurs-(3,5,6-trimethylpyrazin-2-carbonyl)-12-en-28-oic acid] | 305.9 to 306.6 | 9.66 | 9.7 | 9.49 | 10.1 | > 20 | > 20 |  |  |  |  |  | 
10 | C[C@H]1[C@H](C)CC[C@]2(C(=O)O)CC[C@]3(C)C(=CC[C@@H]4[C@@]5(C)CC[C@H](O)C(C)(C)[C@@H]5CC[C@]43C)[C@H]12 [UA, ursolic acid, reference compound] |  | > 20 | > 20 | > 20 | > 20 | > 20 |  |  |  |  |  |  | 
11 | CC1(C)CC[C@]2(C(=O)O)CC[C@]3(C)C(=CC[C@@H]4[C@@]5(C)CC[C@H](O)C(C)(C)[C@@H]5CC[C@]43C)[C@@H]2C1 [OA, oleanolic acid, reference compound] |  | > 20 | > 20 | > 20 | > 20 | > 20 |  |  |  |  |  |  | 
12 | C=C(C)C1CCC2(C(=O)O)CCC3(C)C(CCC4C5(C)CCC(OC(=O)c6nc(C)c(C)nc6C)C(C)(C)C5CCC43C)C12 (stereo not drawn) [Compound 4d, 3β-Hydroxy-(3,5,6-trimethylpyrazin-2-carbonyl)-lup-20(29)-ene-28-oic acid] | 279.5 to 280.3 | 12.2 | 8.38 | 6.22 | 13.3 | 7.42 | > 20 |  |  |  |  |  | 
13 | C=C(C)C1CCC2(C(=O)OCc3ccccc3)CCC3(C)C(CCC4C5(C)CCC(OC(=O)c6nc(C)c(C)nc6C)C(C)(C)C5CCC43C)C12 (stereo not drawn) [Compound 4c, 3β-Hydroxy-(3,5,6-trimethylpyrazin-2-carbonyl)-lup-20(29)-ene-28-oic acid-benzyl ester] | 162.1 to 162.8 | > 20 | > 20 | > 20 | > 20 | > 20 |  |  |  |  |  |  | 
14 | C=C(C)[C@@H]1CC[C@]2(C(=O)O)CC[C@]3(C)[C@H](CC[C@@H]4[C@@]5(C)CC[C@H](O)C(C)(C)[C@@H]5CC[C@]43C)[C@@H]12 [BA, betulinic acid, reference compound] |  | > 20 | > 20 | > 20 | > 20 | > 20 |  |  |  |  |  |  | 
15 | Cc1nc(C)c(C)nc1C [TMP, ligustrazine] |  | > 20 | > 20 | > 20 | > 20 | > 20 |  |  |  |  |  |  | 
16 | Cc1nc(C)c(C(=O)OC2CCC3(C)C(CCC4(C)C3CC=C3C5C(C)C(C)CCC5(C(=O)OCc5ccccc5)CCC34C)C2(C)C)nc1C (stereo not drawn) [Compound 2c, 3β-Hydroxyurs-(3,5,6-trimethylpyrazin-2-carbonyl)-12-en-28-oic acid-benzyl ester] | 218.5 to 219.3 | > 20 | > 20 | > 20 | > 20 | > 20 |  |  |  |  |  |  | 
